Bounds are passed on as bounds.

This note sets out measurements from a melting point compilation (Tetko et al.; mined from patent text by program, amines drawn as free bases though some values may be those of a salt).

What is called melting point is the temperature, or range, at which the solid turns liquid. Consider `CCOC(=O)c1c(-c2ccccc2)cn2ccccc12`, for which the melting point fell in the range of 101 to 103 °C.

For the molecule `NC(=S)c1cccc2nnsc12`, the melting point was 129 to 131 °C.

For `C=CCCOc1ccc(C[C@H](NC(=O)OC(C)(C)C)C(=O)N[C@@H](CC(C)C)C(=O)N[C@@H](CC=C)C(=O)OC)cc1`, the melting point is 166 to 168 °C.

For the molecule `Cc1nc2ccccc2nc1S(=O)Cc1ccccn1` (centres undefined), the melting point is 85 to 88 °C.

Molecule `O=C1CCc2nc(-c3ccccc3)ccc21` displayed a melting point of 177 to 178 °C.

The molecule `Cc1oc2ccc(Nc3ncccc3N)cc2c1C` showed a melting point of 168 to 170 °C.

`CCOc1cc(CCCN2CCc3cc(OC)c(OC)cc3C2)ccc1NC(=O)c1cccc2c(=O)c3cccc(OC)c3[nH]c12` showed a melting point of 198 °C.

On to `COc1cccc2[nH]c(C(=O)OCc3ccccc3)cc12`, for which the melting point is 162 to 164 °C.

`NS(=O)(=O)c1cc(C(=O)O)cc([N+](=O)[O-])c1Nc1cccc(C(F)(F)F)c1` displayed a melting point of 213 to 215 °C.

`Cc1oc(-c2ccccc2)nc1COc1ccc(CCc2oc(-c3ccccc3)nc2CC(=O)O)cc1` came in with a melting point of 180 to 181 °C.

In the case of `C[Si](C)(C)OC(CCl)(Cn1ccnc1)c1ccc(F)cc1F` (centres undefined), the melting point lay within 88 to 89 °C.

As to `O=C(Nc1ccc(Cl)cc1)Nc1ccc2c(c1)OC(F)(F)O2`, the melting point lay within 231 to 233 °C.

`CN(C)CCC1CCc2cc(OCc3ccc(O)cc3)ccc2C1` (centres undefined) gave a melting point of 132 to 135 °C.

As to `Cc1cccc(C(=O)Cc2ccnc(N)c2)c1`, the melting point was 119 to 120 °C.

For `CCOc1ccc(C2=NN(C3CCCC3)C(=O)[C@H]3CCCC[C@@H]23)cc1OCC` (relative stereo), the melting point fell in the range of 111 to 114 °C.

As to `Nc1sc2c(c1C(=O)c1ccsc1)CCCC2`, the melting point was in the range of 133 to 135 °C.

`C[N+]1([O-])C(=O)C(F)N=C(c2ccccc2)c2cc(Cl)ccc21` (centres undefined) displayed a melting point of 167 to 169 °C.

In the case of `c1ccc(-c2csc3ncnc(NCc4ccco4)c23)cc1`, the melting point was 77 to 79 °C.

`Cc1nc(-c2ccc(Br)c(C)c2)no1` gave a melting point of 78 °C.

On to `CCCn1nc2c(-c3ccccc3)cccc2c1-c1ccc(OC)cc1`, for which the melting point is 128 to 129 °C.

Consider `Nc1ccc(CC(=O)Nc2ccc(Nc3ccccc3)cc2)cc1`, for which the melting point lay in the range of 162 to 163 °C.

In turn, `CCOC(=O)c1cnc(Nc2ccc(-n3cnc(C)c3)c(OC)c2)nc1-c1ccc(Cl)cc1` had a melting point of 216 to 218 °C.

`CCSc1nc2cc(Cl)ccc2s1` gave a melting point of 49 to 50 °C.

`Nc1ccn(-c2cccc(Cl)c2)n1` showed a melting point of 106 to 107 °C.

`COc1ccc(O[C@@H]2CCNC[C@H]2O)cc1` (relative stereo) had a melting point of 171 to 173 °C.

`O=C(Nc1ccc(CN2C(=O)CNC2=O)cc1)c1cc(=O)c2ccccc2o1` gave a melting point of 258 to 261 °C.

The molecule `CC(=O)NCc1ccc(C(C)N2CCN(c3ccc(F)cc3)CC2)cc1` (centres undefined) showed a melting point of 128 to 130 °C.

`NC(=O)N(O)CCOc1ccc2c(c1)CCN(CCCc1ccccc1)S2(=O)=O` registered a melting point of 134 to 135 °C.

With `O=C(O)C[C@H](NC(=O)/C=C/C(=O)c1ccccc1)C(=O)O`, the melting point lay within 154 to 156 °C.

On to `O=C(O)c1ccccc1Sc1ccc([N+](=O)[O-])cc1[N+](=O)[O-]`, for which the melting point is 179 to 181 °C.

In the case of `CC#CCOc1ccc(S(=O)C(C(=O)NO)c2ccccc2OC)cc1` (centres undefined), the melting point came out at 168 °C.

For `CCCc1c(OCCCOc2ccc(C(=O)CCC(=O)O)c(Cl)c2Cl)ccc(C(C)=O)c1O`, the melting point lay within 119 to 123 °C.

On to `COC(=O)c1ccccc1-n1c(CCl)nc2ccc(C(F)(F)F)cc2c1=O`, for which the melting point was 169 to 170 °C.

Molecule `CCN(CC)C1=CC(=O)C(=O)C=C1N(CC)CC` yielded a melting point of 100 to 103 °C.

Consider `c1ccc(N=C(N=C(Nc2ccccc2)c2ccccc2)N2CCCC2)cc1`, for which the melting point was in the range of 246 to 247 °C.

Take `CN1CCN(CCO)Cc2ccc(Nc3ncc(Cl)c(N[C@@H]4CCCC[C@H]4NS(C)(=O)=O)n3)cc21`: the melting point lay in the range of 181 to 190 °C.

In turn, `CNC(=O)N1CCSC1c1ccc(O)cc1` (centres undefined) gave a melting point of 218 to 220 °C.

With `CCN(CC)C(=O)n1ccc(S(=O)c2ccccc2Cl)n1` (centres undefined), the melting point lay within 54 to 56 °C.

Molecule `COC(=O)c1cnc(Cl)c(Br)c1` displayed a melting point of 78 to 79 °C.

`c1cn(-c2ccc3nc(-c4ccc5c(c4)OCCO5)ncc3c2)cn1`: the melting point is 132 °C.

`CCc1c(NC(=O)c2cc3c(s2)CCCC3)cccc1-c1cc(N)c(=O)n(C)c1` gave a melting point of 210 to 211 °C.

With `C=CCNc1nc(C2C(=O)Nc3ccc(Br)cc32)c2cn(C)nc2n1` (centres undefined), the melting point lay within 336 to 340 °C.

As to `C/C=C/c1cc2c(s1)[C@@H](OC(C)=O)[C@H](OC(C)=O)C[C@]2(OC(C)=O)C(=O)OC`, the melting point fell in the range of 140 to 143 °C.

With `Cc1oc(-c2ccc(F)cc2)nc1COc1cccc2cc(NS(=O)(=O)C(F)(F)F)ccc12`, the melting point lay within 178 to 180 °C.

On to `C[C@@H](c1ccc(-c2ccn(CC(F)(F)F)c(=O)c2)cc1)N1CC[C@](CC(C)(C)O)(c2ccccc2)OC1=O`, for which the melting point lay within 144 to 146 °C.

In turn, `CSC[C@H]1NC(=O)[C@@H](Cc2ccccc2)NC1=O` showed a melting point of 246 to 247 °C.

In the case of `CCCCOc1ccc2c(=O)c(S(C)=O)cn(C)c2c1` (centres undefined), the melting point was 148 to 150 °C.

Turning to `COC(CCCNc1ccc(-c2nc(=O)c3ccccc3s2)cn1)OC`, the melting point is 157 to 158 °C.

For `c1cncc(-c2nc3ncccc3[nH]2)c1`, the melting point lay in the range of 133 to 135 °C.

`O=C1C(O)N=C(c2ccccc2F)c2ccccc2N1C1CCNCC1` (centres undefined): the melting point was 190 to 192 °C.

As for `CCOC(=O)C(=Cc1c(C)cc(C)cc1C)C(=O)CCl`, the melting point was determined as 85 °C.

Regarding `Cn1c(-c2ccc(Cl)cc2)cc2cc(C(=O)O)ccc21`, the melting point was over 260 °C.

For `CN(Cc1ccc(NC(=O)C2=Cc3cc(-c4ccc(N5CCOCC5)cc4)ccc3N(C=O)CC2)cc1)C1CCOCC1`, the melting point fell in the range of 234 to 243 °C.

`Cc1cc(C)c(S(=O)(=O)N=[N+]=[N-])c(C)c1S(=O)(=O)N=[N+]=[N-]` came in with a melting point of 54 to 56 °C.

On to `Nc1cnc(-c2ccccc2)nc1C(=O)O`, for which the melting point was in the range of 199 to 202 °C.

Molecule `Clc1ccc(C2(Cn3cncn3)OCOC2c2ccc(Cl)cc2Cl)cc1` (centres undefined) yielded a melting point of 201 to 203 °C.

As for `CSC(Oc1cc(I)c2ncc(Br)cc2c1)C(=O)NC(C)(C)C` (centres undefined), the melting point fell in the range of 171 to 172 °C.

As to `Cc1ccc(-c2[nH]c(-c3cccnc3)nc2C(=O)O)cc1`, the melting point is 140 to 142 °C.

The molecule `COC(=O)c1[nH]c2cc(Cl)ccc2c1-c1ccc(F)cc1` returned a melting point of 172 to 183 °C.

As to `C#CCOc1cc(Oc2cc(Cl)cc(Cl)c2)ncn1`, the melting point was found to be 136 °C.

In turn, `CC(=O)Nc1c(C(=O)c2cccc(C(N)=O)c2)[nH]c2cc(Cl)ccc12` returned a melting point of 243 to 247 °C.

Molecule `Nc1c(NCCCO)cccc1OCc1ccccc1` returned a melting point of 82 to 83 °C.

Turning to `O=C(Oc1ccccc1)n1c(C(F)(F)F)nc2c([N+](=O)[O-])cc(C(F)(F)F)cc21`, the melting point was in the range of 100 to 103 °C.

`O=C(NCO)c1cncc([N+](=O)[O-])c1`: the melting point is 145 to 146 °C.
